Values of other authors in patent publication US20260166131A1, “METHOD FOR PROMOTING PATHOLOGICAL TDP-43 PROTEIN DEGRADATION, AND DRUG” (TALENGEN INTERNATIONAL LIMITED, priority 2022, published 2026).
Where “and” joins values, the source holds several entries; their conditions need not be identical. Identical values can stand only once. Like-named read-outs stand apart in the source and are kept apart here.

Test system: ALS patients
Settings: for ALSFRS-R score before dosing: literature
[1] = Edaravone 6 months, intravenous injection
[2] = Riluzole 6 months, taking orally

Structure (SMILES)	ALSFRS-R score after dosing [1]	ALSFRS-R scoring change [1]	ALSFRS-R score before dosing (Edaravone)	ALSFRS-R score after dosing [2]	ALSFRS-R scoring change [2]	ALSFRS-R score before dosing (Riluzole)
CC1=NN(c2ccccc2)C(=O)C1 [Edaravone]	36.89	−5.01±0.64 points and −5.01 points	41.9			
Nc1nc2ccc(OC(F)(F)F)cc2s1 [Riluzole]				33.2	−7.0+7.1 points and −7.0 points	40.2
